Drawing on PubChem BioAssay (NCI), this text covers TGI for eleven compounds.

Some test systems named below: CCRF-CEM leukemia; COLO 205 colon; EKVX NSCLC; HOP-62 NSCLC; M14 melanoma; NCI-H23 lung; OVCAR-4 ovarian; RPMI-8226 leukemia; SF-268 CNS; SK-MEL-5 melanoma; SNB-19 CNS; SNB-75 CNS; UO-31 renal.
What all share (assay): DTP human tumour cell line panel, 48 h

Each structure is given as a SMILES string.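 1) Cells in 96-well plates. 2) Compound, 48 h, 5 concentrations. 3) Linear interpolation between surrounding doses. 4) Unreached endpoint = highest concentration. TGI: total growth inhibition.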

On to `COc1cc2cc(C(=O)N3CC(CCl)c4ccccc43)[nH]c2c(OC)c1OC` (stereo not drawn), for which the TGI with CCRF-CEM leukemia is above 100 µM; in the experiment with COLO 205 colon, above 100 µM; with EKVX NSCLC, above 100 µM; in the experiment with HOP-62 NSCLC, above 92.1 µM; in the experiment on M14 melanoma, above 100 µM; with NCI-H23 lung, above 100 µM. Further, the TGI in the experiment with OVCAR-4 ovarian, in the experiment on RPMI-8226 leukemia, with SF-268 CNS, in the experiment with SK-MEL-5 melanoma, in the experiment on SNB-19 CNS and with SNB-75 CNS was above 100 µM each time. This compound also gave a total growth inhibition concentration (TGI) in the experiment with UO-31 renal above 100 µM.
As for `Cc1cn(C2CC(N)C(C(=O)O)O2)c(=O)[nH]c1=O` (stereo not drawn), the TGI with CCRF-CEM leukemia, with COLO 205 colon, in the experiment with EKVX NSCLC, with HOP-62 NSCLC, with M14 melanoma and in the experiment on NCI-H23 lung was above 100 µM in each case. Further, the total growth inhibition concentration (TGI) in the experiment on OVCAR-4 ovarian, with RPMI-8226 leukemia, in the experiment on SF-268 CNS, in the experiment with SK-MEL-5 melanoma, in the experiment on SNB-19 CNS and with SNB-75 CNS was above 100 µM throughout. Also, the total growth inhibition concentration (TGI) in the experiment on UO-31 renal is above 100 µM.
Take `CC(C)C(/C=C/c1ccc(Br)cc1)=N\NC(N)=O`: the TGI in the experiment with CCRF-CEM leukemia, with COLO 205 colon, in the experiment on EKVX NSCLC, with HOP-62 NSCLC, in the experiment with M14 melanoma and in the experiment with NCI-H23 lung was above 100 µM throughout. For the same compound, the total growth inhibition concentration (TGI) in the experiment with OVCAR-4 ovarian, with RPMI-8226 leukemia, in the experiment on SF-268 CNS, with SK-MEL-5 melanoma, in the experiment on SNB-19 CNS and in the experiment with SNB-75 CNS was above 100 µM each time. Also, the TGI in the experiment on UO-31 renal came out at 66.6 µM.
As for `COc1cc(/C=C/c2cc(/C=C/c3ccc(O)c(OC)c3)oc(=O)c2)ccc1O`, the TGI with CCRF-CEM leukemia is above 26.1 µM; with COLO 205 colon, above 73.2 µM; in the experiment with EKVX NSCLC, above 36.2 µM; in the experiment on HOP-62 NSCLC, 27.2 µM; in the experiment on M14 melanoma it was above 100 µM; with NCI-H23 lung, above 24.7 µM. Also, the total growth inhibition concentration (TGI) in the experiment with OVCAR-4 ovarian is 13.6 µM; in the experiment on RPMI-8226 leukemia it was above 20.5 µM; in the experiment on SF-268 CNS, above 39.7 µM; in the experiment with SK-MEL-5 melanoma it was above 100 µM; with SNB-19 CNS, above 100 µM; with SNB-75 CNS, 4.61 µM. The concentration for total growth inhibition (TGI) with UO-31 renal is above 100 µM.
Turning to `C=CC[C@@]1(C)CCCCCCCCC[C@@](C)(CC=C)C1=O`, the TGI was 42.8 µM with CCRF-CEM leukemia; 42.3 µM in the experiment with COLO 205 colon; above 100 µM in the experiment on EKVX NSCLC; above 100 µM in the experiment with HOP-62 NSCLC; above 100 µM with M14 melanoma; 63.9 µM in the experiment on NCI-H23 lung. The TGI in the experiment with OVCAR-4 ovarian is above 100 µM; with RPMI-8226 leukemia, 66.7 µM; with SF-268 CNS, above 100 µM; in the experiment on SK-MEL-5 melanoma it was 29.5 µM; in the experiment with SNB-19 CNS it was 45 µM; in the experiment on SNB-75 CNS, 92.4 µM. This compound had a TGI in the experiment on UO-31 renal above 100 µM.
With `C/C=C/C(=O)N1C(=O)OC[C@@H]1c1ccccc1`, the TGI worked out at 44.8 µM with CCRF-CEM leukemia; 39.1 µM with COLO 205 colon; 35 µM in the experiment on EKVX NSCLC; 41.1 µM in the experiment on HOP-62 NSCLC; 36.6 µM in the experiment with M14 melanoma; 32.8 µM in the experiment with NCI-H23 lung. Moreover, the TGI is 45.3 µM with OVCAR-4 ovarian; 50 µM with RPMI-8226 leukemia; 44.1 µM with SF-268 CNS; 38.4 µM in the experiment with SK-MEL-5 melanoma; 41.4 µM with SNB-19 CNS; 27.1 µM in the experiment with SNB-75 CNS. The total growth inhibition concentration (TGI) in the experiment on UO-31 renal is 35.2 µM.
Regarding `CCCCC(=O)Oc1ccc2c(C)cc(=O)oc2c1`, the TGI in the experiment on CCRF-CEM leukemia, in the experiment with COLO 205 colon, with EKVX NSCLC, in the experiment with HOP-62 NSCLC, in the experiment with M14 melanoma and in the experiment with NCI-H23 lung was above 100 µM each time. In addition, the TGI with OVCAR-4 ovarian, in the experiment with RPMI-8226 leukemia, in the experiment with SF-268 CNS, in the experiment with SK-MEL-5 melanoma, in the experiment with SNB-19 CNS and in the experiment with SNB-75 CNS was above 100 µM throughout. In the experiment with UO-31 renal, this compound displayed a TGI above 100 µM.
For the compound `COc1cc2c(cc1OCc1ccccc1)NC(=S)[C@@H]1CCCN1C2=S`, the concentration for total growth inhibition (TGI) in the experiment on CCRF-CEM leukemia is above 100 µM; in the experiment with COLO 205 colon it was above 100 µM; in the experiment with EKVX NSCLC it was above 100 µM; in the experiment with HOP-62 NSCLC, 66.2 µM; in the experiment on M14 melanoma, above 100 µM; in the experiment on NCI-H23 lung it was above 100 µM. In addition, the TGI is above 100 µM in the experiment on OVCAR-4 ovarian; above 100 µM in the experiment on RPMI-8226 leukemia; above 100 µM in the experiment with SF-268 CNS; above 100 µM with SK-MEL-5 melanoma; above 100 µM in the experiment with SNB-19 CNS; 90.3 µM in the experiment with SNB-75 CNS. Also, in the experiment on UO-31 renal, the TGI was above 100 µM.
For the compound `N#CCCN(CCN(C(=O)Nc1ccccc1)c1ccccc1)C(=O)Nc1ccccc1`, the TGI in the experiment with CCRF-CEM leukemia was 47.7 µM; in the experiment on COLO 205 colon, above 100 µM; in the experiment on EKVX NSCLC, above 100 µM; with HOP-62 NSCLC, above 100 µM; with M14 melanoma, above 100 µM; in the experiment with NCI-H23 lung, above 100 µM. For the same compound, the TGI is above 100 µM with OVCAR-4 ovarian; above 69.2 µM with RPMI-8226 leukemia; above 100 µM in the experiment on SF-268 CNS; above 100 µM in the experiment with SK-MEL-5 melanoma; above 100 µM in the experiment on SNB-19 CNS; above 100 µM with SNB-75 CNS. The concentration for total growth inhibition (TGI) with UO-31 renal was above 100 µM.
For the compound `COc1cccc(C2C3=C(COC3=O)Oc3cc4c(cc32)OCO4)c1` (stereo not drawn), the concentration for total growth inhibition (TGI) was 7.74 µM with CCRF-CEM leukemia; 0.631 µM in the experiment with COLO 205 colon; above 58 µM in the experiment with EKVX NSCLC; above 14 µM in the experiment with HOP-62 NSCLC; above 100 µM in the experiment on M14 melanoma; 24.9 µM in the experiment on NCI-H23 lung. The concentration for total growth inhibition (TGI) is above 100 µM in the experiment on OVCAR-4 ovarian; 3.03 µM in the experiment with RPMI-8226 leukemia; above 62.6 µM with SF-268 CNS; above 43.1 µM in the experiment with SK-MEL-5 melanoma; above 100 µM in the experiment with SNB-19 CNS; above 100 µM in the experiment with SNB-75 CNS. This compound also had a total growth inhibition concentration (TGI) in the experiment with UO-31 renal above 100 µM.
`COc1cc2c(cc1OC)C(N)CC2=O` (stereo not drawn): the TGI with CCRF-CEM leukemia, with COLO 205 colon, in the experiment with EKVX NSCLC, in the experiment on HOP-62 NSCLC, in the experiment with M14 melanoma and in the experiment on NCI-H23 lung was above 100 µM each time. Also, the TGI with OVCAR-4 ovarian, with RPMI-8226 leukemia, in the experiment on SF-268 CNS, in the experiment on SK-MEL-5 melanoma, in the experiment on SNB-19 CNS and with SNB-75 CNS was above 100 µM in each case. In the experiment with UO-31 renal, this compound came in with a TGI above 100 µM.
